Measured values: article PMC10620772, “Design, synthesis, and biological evaluation of new pyrimidine-5-carbonitrile derivatives as novel anti-cancer, dual EGFR^WT/COX-2 inhibitors with docking studies” (RSC Advances, 2023)

How the values were obtained:
Format in all cases: cell-based, human
UACC-257 = assay: NCI60 antitumor screening; details: Homo sapiens; 10 μM single dose; UACC-257 (melanoma); read-out: growth inhibition percent (GI%)
ACHN = assay: NCI60 antitumor screening; details: Homo sapiens; 10 μM single dose; ACHN (renal cancer); read-out: growth inhibition percent (GI%)
RXF 393 = assay: NCI60 antitumor screening; details: for GI%: 10 μM one-dose, Table 1; for inhibition at 10 µM: Homo sapiens, 10 μM single dose, RXF 393 (renal cancer), read-out: growth inhibition percent (GI%)
LOX IMVI = assay: NCI60 antitumor screening; details: Homo sapiens; 10 μM single dose; LOX IMVI (melanoma); read-out: growth inhibition percent (GI%)
NCI/ADR-RES = assay: NCI60 antitumor screening; details: Homo sapiens; 10 μM single dose; NCI/ADR-RES (ovarian cancer); read-out: growth inhibition percent (GI%)
SF-268 = assay: NCI60 antitumor screening; details: Homo sapiens; 10 μM single dose; SF-268 (CNS cancer); read-out: growth inhibition percent (GI%)
SK-MEL-5 = assay: NCI60 antitumor screening; details: Homo sapiens; 10 μM single dose; SK-MEL-5 (melanoma); read-out: growth inhibition percent (GI%)
OVCAR-8 = assay: NCI60 antitumor screening; details: Homo sapiens; 10 μM single dose; OVCAR-8 (ovarian cancer); read-out: growth inhibition percent (GI%)
SNB-19 = assay: NCI60 antitumor screening; details: Homo sapiens; 10 μM single dose; SNB-19 (CNS cancer); read-out: growth inhibition percent (GI%)
TK-10 = assay: NCI60 antitumor screening; details: Homo sapiens; 10 μM single dose; TK-10 (renal cancer); read-out: growth inhibition percent (GI%)
SR = assay: NCI60 antitumor screening; details: for GI%: 10 μM one-dose, Table 1; for inhibition at 10 µM: Homo sapiens, 10 μM single dose, SR (leukaemia), read-out: growth inhibition percent (GI%)
COLO 205 = assay: NCI60 antitumor screening; details: Homo sapiens; 10 μM single dose; COLO 205 (colon cancer); read-out: growth inhibition percent (GI%)
SK-OV-3 = assay: NCI60 antitumor screening; details: Homo sapiens; 10 μM single dose; SK-OV-3 (ovarian cancer); read-out: growth inhibition percent (GI%)
MDA-MB-231/ATCC = assay: NCI60 antitumor screening; details: Homo sapiens; 10 μM single dose; MDA-MB-231/ATCC (breast cancer); read-out: growth inhibition percent (GI%)
SF-539 = assay: NCI60 antitumor screening; details: for GI%: 10 μM one-dose, Table 1; for inhibition at 10 µM: Homo sapiens, 10 μM single dose, SF-539 (CNS cancer), read-out: growth inhibition percent (GI%)
SK-MEL-28 = assay: NCI60 antitumor screening; details: Homo sapiens; 10 μM single dose; SK-MEL-28 (melanoma); read-out: growth inhibition percent (GI%)
NCI-H322M = assay: NCI60 antitumor screening; details: Homo sapiens; 10 μM single dose; NCI-H322M (non-small cell lung cancer); read-out: growth inhibition percent (GI%)
NCI60 cell lines panel = assay: NCI60 antitumor screening, full panel; details: for inhibition at 10 µM: Homo sapiens, 10 μM single dose, mean over NCI60 cell lines, read-out: Mean growth inhibition percent (GI%)
Method in brief: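 Percent growth inhibition (GI%) was recorded for each of the NCI60 lines, spanning leukaemia, lung, colon, CNS, melanoma, ovarian, renal, prostate and breast cancers, after exposure to compounds at one concentration, 10 μM.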

A498 = assay: NCI60 antitumor screening; details: Homo sapiens; 10 μM single dose; A498 (renal cancer); read-out: growth inhibition percent (GI%)
HL-60(TB) = assay: NCI60 antitumor screening; details: Homo sapiens; 10 μM single dose; HL-60(TB) (leukaemia); read-out: growth inhibition percent (GI%)
MCF7 = assay: NCI60 antitumor screening; details: Homo sapiens; 10 μM single dose; MCF7 (breast cancer); read-out: growth inhibition percent (GI%)
CAKI-1 = assay: NCI60 antitumor screening; details: Homo sapiens; 10 μM single dose; CAKI-1 (renal cancer); read-out: growth inhibition percent (GI%)

| SMILES | inhibition at 10 µM (UACC-257) [%] | inhibition at 10 µM (ACHN) [%] | inhibition at 10 µM (RXF 393) [%] | inhibition at 10 µM (LOX IMVI) [%] | inhibition at 10 µM (NCI/ADR-RES) [%] | inhibition at 10 µM (SF-268) [%] | inhibition at 10 µM (SK-MEL-5) [%] | inhibition at 10 µM (OVCAR-8) [%] | inhibition at 10 µM (SNB-19) [%] | inhibition at 10 µM (TK-10) [%] | inhibition at 10 µM (SR) [%] | inhibition at 10 µM (COLO 205) [%] | inhibition at 10 µM (SK-OV-3) [%] | inhibition at 10 µM (MDA-MB-231/ATCC) [%] | inhibition at 10 µM (SF-539) [%] | inhibition at 10 µM (SK-MEL-28) [%] | inhibition at 10 µM (NCI-H322M) [%] | inhibition at 10 µM (NCI60 cell lines panel) [%] | inhibition at 10 µM (A498) [%] | inhibition at 10 µM (HL-60(TB)) [%] | also measured |
| --- | --- | --- | --- | --- | --- | --- | --- | --- | --- | --- | --- | --- | --- | --- | --- | --- | --- | --- | --- | --- | --- |
| CN1CCN(c2nc(SCc3ccc(F)cc3)nc(-c3ccc(F)cc3)c2C#N)CC1 [4j, 2-((4-Fluorobenzyl)thio)-4-(4-fluorophenyl)-6-(4-methylpiperazin-1-yl)pyrimidine-5-carbonitrile] | < 10 | 39.1 | 80.6 | 22.9 | 42.9 | 15.8 | < 10 | 32 | 40.3 | 15 | < 10 | < 10 | 55.5 | 45.8 | 54.8 | 16.2 | 24.6 | 25.1 | < 10 | < 10 | GI% (RXF 393): 80.61%; GI% (SR): — (GI value > 70%); GI% (SF-539): — (GI value > 70%); inhibition at 10 µM (MCF7): 14.8%; inhibition at 10 µM (CAKI-1): 57.5% |
| N#Cc1c(-c2ccc(F)cc2)nc(SCc2ccc([N+](=O)[O-])cc2)nc1N1CCNCC1 [4g, 4-(4-Fluorophenyl)-2-((4-nitrobenzyl)thio)-6-(piperazin-1-yl) pyrimidine-5-carbonitrile] | < 10 | < 10 | 15.2 | < 10 | < 10 | < 10 | < 10 | < 10 | < 10 | < 10 | < 10 | < 10 | < 10 | < 10 | < 10 | < 10 | < 10 | < 10 | < 10 | < 10 | One-dose activity over the NCI60 panel (NCI60 cell lines panel; 10 μM): inactive; inhibition at 10 µM (MCF7): < 10%; inhibition at 10 µM (CAKI-1): 11% |
| CN1CCN(c2nc(SCc3ccccc3)nc(-c3ccc(F)cc3)c2C#N)CC1 [4i, 2-(Benzylthio)-4-(4-fluorophenyl)-6-(4-methylpiperazin-1-yl) pyrimidine-5-carbonitrile] | 27.8 | 14.8 | 49.7 | 25.4 | < 10 | 26.8 | 33.6 | 14.1 | 10 | < 10 | 71 | 13.6 | < 10 | 15.9 | 14.4 | < 10 | 16 | 24.3 | 12.5 | 36.5 | GI% (RXF 393): — (GI value > 70%); GI% (SR): 70.98%; GI% (SF-539): — (GI value > 70%); inhibition at 10 µM (MCF7): 30.8%; inhibition at 10 µM (CAKI-1): 37.9% |
